Test results taken from patent US9321756B2, “Azole compounds as PIM inhibitors” (priority 2011, dated 2016).
Read-outs that look alike come from different tables or passages of the source.

How the values were obtained:
Type in all cases: biochemical
[1] = molecular target: full length recombinant Pim-1 (Homo sapiens (Human), UniProt P11309); assay: Pim enzyme assay (HTRF, phosphorylation of biotinylated-BAD (S112) peptide), Pim-1; details: Pim-1 enzyme assay; read-out: Pim_1_IC50
[2] = molecular target: full length recombinant Pim-3 (Homo sapiens (Human), UniProt Q86V86); assay: Pim enzyme assay (HTRF, phosphorylation of biotinylated-BAD (S112) peptide), Pim-3; details: read-out: Pim3 IC50
Excerpt: Pim-3 was purchased from Millipore (UK).
The phosphorylation of biotinylated-BAD (S112) peptide by full length recombinant Pim-1, Pim-2, or Pim-3 protein was detected with streptavidin:Allophycocyanin (APC) conjugate and a europium (Eu) labeled antibody directed against phosphorylated-BAD (S112). […] The fluorescence is directly proportional to the amount of phosphorylated BAD peptide present in the reaction.
A reference compound was included on each assay plate in order to validate that plate; on one plate of every assay run, two additional reference compounds were included.
The final buffer conditions were as follows: 60 mM Hepes, pH 7.0, 0.05% BSA, 2 mM DTT. Incubations were carried out at RT (22° C.) for 2 h for Pim-1, 1 h and 30 min for Pim-3, and 45 min for Pim-2. The reaction was then stopped by the addition of 3 mM EDTA, and fluorescence was measured by an HTRF® Rubystar microplate reader. For each plate, percent of control (POC) values were calculated for each well. Values for the IC50 IP were estimated using a standard 4-parameter logistic model.

[3] = molecular target: full length recombinant Pim-2 (Homo sapiens (Human), UniProt Q9P1W9); assay: Pim enzyme assay (HTRF, phosphorylation of biotinylated-BAD (S112) peptide), Pim-2; details: read-out: Pim2_IC50
Sequence of full length recombinant Pim-2 (Q9P1W9 whole entry): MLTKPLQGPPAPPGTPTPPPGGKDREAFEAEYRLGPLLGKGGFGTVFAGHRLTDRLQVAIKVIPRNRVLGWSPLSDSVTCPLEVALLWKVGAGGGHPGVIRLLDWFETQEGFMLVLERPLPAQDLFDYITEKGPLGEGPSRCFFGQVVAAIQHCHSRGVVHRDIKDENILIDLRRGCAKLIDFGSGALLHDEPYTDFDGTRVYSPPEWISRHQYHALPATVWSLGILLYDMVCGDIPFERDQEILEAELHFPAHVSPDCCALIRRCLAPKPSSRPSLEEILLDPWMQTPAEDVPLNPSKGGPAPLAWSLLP

Sequence of full length recombinant Pim-1 (P11309 whole entry): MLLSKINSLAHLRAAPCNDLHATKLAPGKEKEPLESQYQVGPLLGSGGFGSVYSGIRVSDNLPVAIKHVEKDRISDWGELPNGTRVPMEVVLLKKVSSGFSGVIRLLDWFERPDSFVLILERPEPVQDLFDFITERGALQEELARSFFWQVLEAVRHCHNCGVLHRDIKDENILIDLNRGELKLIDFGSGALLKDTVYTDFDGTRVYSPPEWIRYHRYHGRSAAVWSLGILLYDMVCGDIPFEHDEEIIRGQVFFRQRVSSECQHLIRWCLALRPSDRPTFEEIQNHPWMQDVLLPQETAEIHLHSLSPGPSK

SMILES | IC50 [1] | IC50 ([2]; Pim-3 enzyme assay) | IC50 ([3]; Pim-2 enzyme assay) | IC50 [3] | IC50 [2]
Nc1ncc(-c2ccc3[nH]cc(-c4cnc5ccccc5c4)c3c2)s1 [Example 20, 5-(3-(quinolin-3-yl)-1H-indol-5-yl)thiazol-2-amine] | 281 nM | 267 nM |  | 2710 nM | 
Nc1nnc(-c2ccc3[nH]cc(-c4cnc5ccccc5c4)c3c2)s1 [Example 21, 5-(3-(quinolin-3-yl)-1H-indol-5-yl)-1,3,4-thiadiazol-2-amine] | 178 nM | 179 nM | 1010 nM |  | 
CNc1nnc(-c2ccc3[nH]cc(-c4cccc(-c5ccccc5)c4)c3c2)s1 [Example 22, 5-(3-(biphenyl-3-yl)-1H-indol-5-yl)-N-methyl-1,3,4-thiadiazol-2-amine] | 2800 nM | 1470 nM | > 3000 nM |  | 
CNc1nnc(-c2ccc3[nH]cc(-c4ccc(F)cc4F)c3c2)s1 [Example 23, 5-(3-(2,4-difluorophenyl)-1H-indol-5-yl)-N-methyl-1,3,4-thiadiazol-2-amine] | 423 nM | 136 nM | 1550 nM |  | 
Cc1nnc2n1CCN(c1cccc(-c3c[nH]c4ccc(-c5nnc(N)s5)cc34)n1)C2 [Example 25, 5-(3-(6-(3-methyl-5,6-dihydro-[1,2,4]triazolo[4,3-a]pyrazin-7(8H)-yl)pyridin-2-yl)-1H-indol-5-yl)-1,3,4-thiadiazol-2-amine 2,2,2-trifluoroacetate] | 17.5 nM | 3.02 nM | 88.7 nM |  | 
Oc1nnc(-c2ccc3[nH]cc(-c4ccc(F)cc4F)c3c2)s1 [Example 26, 5-(3-(2,4-difluorophenyl)-1H-indol-5-yl)-1,3,4-thiadiazol-2-ol] | 2000 nM | 795 nM | > 3000 nM |  | 
Brc1nnc(-c2ccc3[nH]cc(-c4cccc(N5CCOCC5)n4)c3c2)s1 [Example 27, 4-(6-(5-(5-bromo-1,3,4-thiadiazol-2-yl)-1H-indol-3-yl)pyridin-2-yl)morpholine] | 1310 nM | 399 nM | > 3000 nM |  | 
COc1ccc(CNc2nnc(-c3ccc4[nH]cc(-c5cncc(C6CC6)n5)c4c3)o2)cc1 [Example 36, 5-(3-(6-Cyclopropylpyrazin-2-yl)-1H-indol-5-yl)-N-(4-methoxybenzyl)-1,3,4-oxadiazol-2-amine 2,2,2-trifluoroacetate] | 43 nM | 11.4 nM | 212 nM |  | 
O=c1[nH]nc(-c2ccc3[nH]cc(-c4cncc(C5CC5)n4)c3c2)o1 [Example 38, 5-(3-(6-Cyclopropylpyrazin-2-yl)-1H-indol-5-yl)-1,3,4-oxadiazol-2(3H)-one 2,2,2-trifluoroacetate] | 65.5 nM |  |  | 54.5 nM | 37.7 nM
c1cc(-c2nnc(-c3ccc4[nH]cc(-c5cncc(C6CC6)n5)c4c3)o2)[nH]n1 [Example 39, 2-(3-(6-Cyclopropylpyrazin-2-yl)-1H-indol-5-yl)-5-(1H-pyrazol-5-yl)-1,3,4-oxadiazole 2,2,2-trifluoroacetate] | 51.4 nM |  |  | 158 nM | 19.8 nM
CC(C)(Nc1nnc(-c2ccc3[nH]cc(-c4cncc(C5CC5)n4)c3c2)o1)c1ccccc1 [Example 50, 5-(3-(6-cyclopropylpyrazin-2-yl)-1H-indol-5-yl)-N-(2-phenylpropan-2-yl)-1,3,4-oxadiazol-2-amine] | 57.7 nM |  | 302 nM |  | 14.4 nM
CC(C)(Nc1nnc(-c2ccc3[nH]cc(-c4ncccn4)c3c2)o1)c1ccccc1 [Example 52, N-(2-phenylpropan-2-yl)-5-(3-(pyrimidin-2-yl)-1H-indol-5-yl)-1,3,4-oxadiazol-2-amine 2,2,2-trifluoroacetate] | 70.1 nM | 40.3 nM | 271 nM |  | 
CC(C)Oc1cc(F)cc(-c2c[nH]c3ccc(-c4nnc(N)o4)cc23)c1 [Example 79, 5-(3-(3-fluoro-5-(1-methylethoxy)phenyl)-1H-indol-5-yl)-1,3,4-oxadiazol-2-amine] | 154 nM | 85.8 nM | 185 nM |  | 
Nc1nnc(-c2ccc3[nH]cc(-c4cnn(CCN5CCOCC5)c4)c3c2)o1 [Example 81, 5-(3-(1-(2-(4-morpholinyl)ethyl)-1H-pyrazol-4-yl)-1H-indol-5-yl)-1,3,4-oxadiazol-2-amine] | 101 nM | 147 nM | 273 nM |  | 
COC[C@@H]1CCCN1c1ccnc(-c2c[nH]c3ccc(-c4nnc(N)o4)cc23)n1 [Example 109, 5-(3-(4-((2S)-2-(methoxymethyl)-1-pyrrolidinyl)-2-pyrimidinyl)-1H-indol-5-yl)-1,3,4-oxadiazol-2-amine] | 32.2 nM | 13 nM | 26.8 nM |  | 
CC(C)Oc1cccc(-c2c[nH]c3ccc(-c4nnc(N)o4)nc23)c1 [Example 126, 5-(3-(3-(1-methylethoxy)phenyl)-1H-pyrrolo[3,2-b]pyridin-5-yl)-1,3,4-oxadiazol-2-amine] | 272 nM | 84.8 nM | 244 nM |  | 

Further lines, with some results ahead:

IC50 [1] | IC50 ([2]; Pim-3 enzyme assay) | IC50 ([3]; Pim-2 enzyme assay) | SMILES | IC50 [3] | IC50 [2]
2350 nM | 2380 nM | 1780 nM | Nc1nnc(-c2ccc3[nH]cc(-c4cncc(C(=O)N5CCOCC5)c4)c3c2)o1 [Example 82, 5-(3-(5-(4-morpholinylcarbonyl)-3-pyridinyl)-1H-indol-5-yl)-1,3,4-oxadiazol-2-amine] |  | 
92.6 nM | 26 nM | 140 nM | Nc1nnc(-c2ccc3[nH]cc(-c4ccccc4F)c3c2)o1 [Example 84, 5-(3-(2-fluorophenyl)-1H-indol-5-yl)-1,3,4-oxadiazol-2-amine] |  | 
225 nM | 81.8 nM | 385 nM | CC(C)Oc1cccc(-c2c[nH]c3ccc(-c4nnc(N)o4)cc23)c1 [Example 85, 5-(3-(3-(1-methylethoxy)phenyl)-1H-indol-5-yl)-1,3,4-oxadiazol-2-amine] |  | 
279 nM | 122 nM | 324 nM | CCOc1cnc(-c2c[nH]c3ccc(-c4nnc(N)o4)cc23)cn1 [Example 86, 5-(3-(5-ethoxy-2-pyrazinyl)-1H-indol-5-yl)-1,3,4-oxadiazol-2-amine] |  | 
25.9 nM | 12.3 nM | 46.6 nM | Nc1nnc(-c2ccc3[nH]cc(-c4cncc(Oc5ccccc5)n4)c3c2)o1 [Example 92, 5-(3-(6-phenoxy-2-pyrazinyl)-1H-indol-5-yl)-1,3,4-oxadiazol-2-amine] |  | 
269 nM | 140 nM | 111 nM | Nc1nnc(-c2ccc3[nH]cc(-c4ncccn4)c3c2)o1 [Example 93, 5-(3-(2-pyrimidinyl)-1H-indol-5-yl)-1,3,4-oxadiazol-2-amine] |  | 
67 nM | 12 nM | 31.9 nM | Nc1nnc(-c2ccc3[nH]cc(-c4nccc(C(F)(F)F)n4)c3c2)o1 [Example 96, 5-(3-(4-(trifluoromethyl)-2-pyrimidinyl)-1H-indol-5-yl)-1,3,4-oxadiazol-2-amine] |  | 
157 nM | 29.2 nM | 146 nM | Nc1nnc(-c2ccc3[nH]cc(-c4cncc(Cl)n4)c3c2)o1 [Example 102, 5-(3-(6-chloro-2-pyrazinyl)-1H-indol-5-yl)-1,3,4-oxadiazol-2-amine] |  | 
27.9 nM | 17.2 nM | 33.4 nM | Cc1ccccc1-c1ccnc(-c2c[nH]c3ccc(-c4nnc(N)o4)cc23)n1 [Example 124, 5-(3-(4-(2-methylphenyl)-2-pyrimidinyl)-1H-indol-5-yl)-1,3,4-oxadiazol-2-amine] |  | 
